Reference: US20080200337A1, “Mixed herbicide compositions for paddy field” (Bayer CropScience, priority 2007, published 2008)

Tests used:
Type in all cases: in vivo
[1] = test system: Echinochloa oryzicola Vasing; assay: Weed control by spray treatment at 1.5 to 3.0 leaf-stage (Test Example 3); details: spray at 1.5 to 3.0 leaf-stage, 4 weeks later
Experimental: (§1) Carrier: 5 parts by weight of acetone
(§2) Surfactant: one part by weight of benzyloxy polyglycol ether.
(§3) Above described carrier and surfactant are mixed with one part by weight of the active compound ((a) ingredient and (b) ingredient) and the resulting preparation is then diluted with water to obtain given amount of the test drug (the formulation).
(§4) In a greenhouse, seeds of rice (var.: Nipponbare and RD23) and weeds (Echinochloa oryzicola Vasing, Echinochloa cruss-galli, Leptochloa chinensis, Cyperus difformis L., Cyperus iria L., annual broad-leaved weeds (Monochoria vaginalis Presl, Lindernia procumbens Philcox, Lindernia dubia L. Penn., Rotala indica Koehne, Elatine triandra Schk, Ammannia multiflora Roxb. and the like)) were sown in a 500 cm^2 pot filled with paddy field soil and covered with soil. Water was added to the pot (a depth of 0 cm) to be a wet condition, and each test plant was grown in the greenhouse to 1.5 to 3.0 leaf-stage, after then a prescribed, diluted solution of the formulation of each active compound and each herbicidal compound in the table were separately or simultaneously sprayed over the pots with plants. At 3 days after the treatment, the water depth of 3 cm was maintained, and 4 weeks later, herbicidal effect was then examined. In the assessment of the herbicidal effect and the phytotoxicity, 100% refers to complete death and 0% refers to no effect or no phytotoxicity.

[2] = test system: Monochoria vaginalis Presl; assay: as above; details: spray at 1.5 to 3.0 leaf-stage, 4 weeks later
Experimental: as §1, §2, §3, §4

Cyperus difformis L. = assay: as above; details: spray at 1.5 to 3.0 leaf-stage, 4 weeks later
Experimental: as §1, §2, §3, §4

[3] = test system: annual broad-leaved weeds; assay: as above; details: spray at 1.5 to 3.0 leaf-stage, 4 weeks later
Experimental: as §1, §2, §3, §4

Cyperus iria L. = assay: as above; details: spray at 1.5 to 3.0 leaf-stage, 4 weeks later
Experimental: as §1, §2, §3, §4

Echinochloa cruss-galli = assay: as above; details: spray at 1.5 to 3.0 leaf-stage, 4 weeks later
Experimental: as §1, §2, §3, §4

Leptochloa chinensis = assay: as above; details: spray at 1.5 to 3.0 leaf-stage, 4 weeks later
Experimental: as §1, §2, §3, §4

[4] = test system: submerged direct sown paddy (RD-23); assay: Phytotoxicity, spray treatment at 1.5 to 3.0 leaf-stage (Test Example 3); details: spray at 1.5 to 3.0 leaf-stage, 4 weeks later, RD-23
Experimental: as §1, §2, §3, §4

[5] = test system: submerged direct sown paddy (Nipponbare); assay: as above; details: spray at 1.5 to 3.0 leaf-stage, 4 weeks later
Experimental: as §1, §2, §3, §4

[6] = test system: Monochoria vaginalis Presl; assay: Weed control, flooded paddy field, treatment at 3 leaf-stage (Test Example 2); details: after 4 weeks
Experimental: as §1, §2, §3
(§5) In a greenhouse, seeds or tubers of Echinochloa, Cyperus difformis L., Scirpus juncoides Roxburgh, Monochoria vaginalis Presl, annual broad-leaved weeds (Lindernia procumbens Philcox, Lindernia dubia L. Penn., Rotala indica Koehne, Elatine triandra Schk, Ammannia multiflora Roxb.), Cyperus serotinus Rottboel and Sagittaria pygmaea Miq. were inoculated in a 500 cm^2 pot filled with paddy field soil. After 2 leaf-stage of rice were transplanted, water was poured to a depth of about 3 cm. At 3.0 leaf-stage of Echinochloa, a prescribed, diluted solution of the formulation of each active compound and each herbicidal compound in the table was separately or simultaneously applied to the surface of water. After the treatment, the water depth of 3 cm was maintained, and herbicidal effect was examined after 4 weeks. In the assessment of the herbicidal effect and the phytotoxicity, 100% refers to complete death and 0% refers to no effect or no phytotoxicity.

Echinochloa [7] = assay: as above; details: after 4 weeks
Experimental: as §1, §2, §3, §5

Sagittaria pygmaea Miq. [8] = assay: as above; details: after 4 weeks
Experimental: as §1, §2, §3, §5

[9] = test system: Cyperus serotinus Rottboel; assay: as above; details: after 4 weeks
Experimental: as §1, §2, §3, §5

[10] = test system: annual broad-leaved weeds; assay: as above; details: after 4 weeks
Experimental: as §1, §2, §3, §5

[11] = test system: Scirpus juncoides Roxburgh; assay: as above; details: after 4 weeks
Experimental: as §1, §2, §3, §5

[12] = test system: Monochoria vaginalis Presl; assay: Weed control, flooded paddy field, treatment at 1 leaf-stage (Test Example 1); details: after 4 weeks
Experimental: as §1, §2, §3
as §5, with “Echinochloa,” for “Echinochloa, Cyperus difformis L.,”, “1.0” for “3.0”, “Echinochloa oryzicola Vasing,” for “Echinochloa,”

Echinochloa [13] = assay: as above; details: after 4 weeks
Experimental: as §1, §2, §3
as §5, with “Echinochloa,” for “Echinochloa, Cyperus difformis L.,”, “1.0” for “3.0”, “Echinochloa oryzicola Vasing,” for “Echinochloa,”

Sagittaria pygmaea Miq. [14] = assay: as above; details: after 4 weeks
Experimental: as §1, §2, §3
as §5, with “Echinochloa,” for “Echinochloa, Cyperus difformis L.,”, “1.0” for “3.0”, “Echinochloa oryzicola Vasing,” for “Echinochloa,”

[15] = test system: Cyperus serotinus Rottboel; assay: as above; details: after 4 weeks
Experimental: as §1, §2, §3
as §5, with “Echinochloa,” for “Echinochloa, Cyperus difformis L.,”, “1.0” for “3.0”, “Echinochloa oryzicola Vasing,” for “Echinochloa,”

[16] = test system: annual broad-leaved weeds; assay: as above; details: after 4 weeks
Experimental: as §1, §2, §3
as §5, with “Echinochloa,” for “Echinochloa, Cyperus difformis L.,”, “1.0” for “3.0”, “Echinochloa oryzicola Vasing,” for “Echinochloa,”

[17] = test system: Scirpus juncoides Roxburgh; assay: as above; details: after 4 weeks
Experimental: as §1, §2, §3
as §5, with “Echinochloa,” for “Echinochloa, Cyperus difformis L.,”, “1.0” for “3.0”, “Echinochloa oryzicola Vasing,” for “Echinochloa,”

transplanted rice [18] = assay: Phytotoxicity, flooded paddy field, treatment at 3 leaf-stage (Test Example 2)
Experimental: as §1, §2, §3, §5

transplanted rice [19] = assay: Phytotoxicity, flooded paddy field, treatment at 1 leaf-stage (Test Example 1)
Experimental: as §1, §2, §3
as §5, with “Echinochloa,” for “Echinochloa, Cyperus difformis L.,”, “1.0” for “3.0”, “Echinochloa oryzicola Vasing,” for “Echinochloa,”

| Structure (SMILES) | Herbicidal effect (%) ECHOR ([1]; 30 g ai/ha) [%] | Herbicidal effect (%) ECHOR ([1]; 50 g ai/ha) [%] | Herbicidal effect (%) MOOVP ([2]; 30 g ai/ha) [%] | Herbicidal effect (%) MOOVP ([2]; 50 g ai/ha) [%] | Herbicidal effect (%) CYPDI (Cyperus difformis L.; 30 g ai/ha) [%] | Herbicidal effect (%) CYPDI (Cyperus difformis L.; 50 g ai/ha) [%] | Herbicidal effect (%) BBBBB ([3]; 30 g ai/ha) [%] | Herbicidal effect (%) BBBBB ([3]; 50 g ai/ha) [%] | Herbicidal effect (%) CYPIR (Cyperus iria L.; 30 g ai/ha) [%] | Herbicidal effect (%) CYPIR (Cyperus iria L.; 50 g ai/ha) [%] | Herbicidal effect (%) ECHCG (Echinochloa cruss-galli; 30 g ai/ha) [%] | Herbicidal effect (%) ECHCG (Echinochloa cruss-galli; 50 g ai/ha) [%] | Herbicidal effect (%) LEFCH (Leptochloa chinensis; 30 g ai/ha) [%] | Herbicidal effect (%) LEFCH (Leptochloa chinensis; 50 g ai/ha) [%] | Phytotoxicity (%) ORYSW*^2 ([4]; 30 g ai/ha) [%] | Phytotoxicity (%) ORYSW*^2 ([4]; 50 g ai/ha) [%] | Phytotoxicity (%) ORYSW*^1 ([5]; 30 g ai/ha) [%] | Phytotoxicity (%) ORYSW*^1 ([5]; 50 g ai/ha) [%] | Herbicidal effect (%) MOOVP ([6]; 50 g ai/ha) [%] | Herbicidal effect (%) ECHSS (Echinochloa [7]; 50 g ai/ha) [%] | other results |
| --- | --- | --- | --- | --- | --- | --- | --- | --- | --- | --- | --- | --- | --- | --- | --- | --- | --- | --- | --- | --- | --- |
| COc1nc(OC)nc(C(O)c2cccc(Cl)c2N(C)S(=O)(=O)C(F)F)n1 (stereo not drawn) [(a-4)] | 100 | 100 | 25 | 25 | 100 | 100 | 65 | 75 | 100 | 100 | 100 | 100 | 50 | 50 | 0 | 0 | 0 | 5 | – | – | – |
| COCc1cccc(C(O)c2nc(OC)cc(OC)n2)c1NS(=O)(=O)C(F)F (stereo not drawn) [(b-8), pyrimisulfan] | – | – | – | – | – | – | – | – | – | – | – | – | – | – | – | – | – | – | 95 | 85 | Herbicidal effect (%) SAGPY (Sagittaria pygmaea Miq. [8]; 50 g ai/ha): 85%; Herbicidal effect (%) CYPSEE ([9]; 50 g ai/ha): 90%; Herbicidal effect (%) BBBBB ([10]; 50 g ai/ha): 85%; Herbicidal effect (%) SCPSS ([11]; 50 g ai/ha): 90%; Herbicidal effect (%) MOOVP ([12]; 50 g ai/ha): 95%; Herbicidal effect (%) ECHSS (Echinochloa [13]; 50 g ai/ha): 95%; Herbicidal effect (%) SAGPY (Sagittaria pygmaea Miq. [14]; 50 g ai/ha): 90%; Herbicidal effect (%) CYPSEE ([15]; 50 g ai/ha): 95%; Herbicidal effect (%) BBBBB ([16]; 50 g ai/ha): 95%; Herbicidal effect (%) SCPSS ([17]; 50 g ai/ha): 95%; Phytotoxicity (%) ORYSP (transplanted rice [18]; 50 g ai/ha, treatment at 3 leaf-stage, after 4 weeks): 5%; Phytotoxicity (%) ORYSP (transplanted rice [19]; 50 g ai/ha, treatment at 1 leaf-stage, after 4 weeks): 15% |
| COc1nc(OC)nc(C(=O)c2cccc(Cl)c2N(C)S(=O)(=O)C(F)F)n1 [(a-2)] | 100 | 100 | 40 | 65 | 100 | 100 | 70 | 85 | 100 | 100 | 100 | 100 | 65 | 65 | 5 | 10 | 5 | 10 | – | – | – |
| COC(=O)c1ccccc1CS(=O)(=O)NC(=O)Nc1nc(OC)cc(OC)n1 [(b-4), bensulfuron methyl] | – | – | – | – | – | – | – | – | – | – | – | – | – | – | – | – | – | – | 90 | 20 | Herbicidal effect (%) SAGPY (Sagittaria pygmaea Miq. [8]; 50 g ai/ha): 80%; Herbicidal effect (%) CYPSEE ([9]; 50 g ai/ha): 80%; Herbicidal effect (%) BBBBB ([10]; 50 g ai/ha): 90%; Herbicidal effect (%) SCPSS ([11]; 50 g ai/ha): 85%; Herbicidal effect (%) MOOVP ([12]; 50 g ai/ha): 90%; Herbicidal effect (%) ECHSS (Echinochloa [13]; 50 g ai/ha): 50%; Herbicidal effect (%) SAGPY (Sagittaria pygmaea Miq. [14]; 50 g ai/ha): 90%; Herbicidal effect (%) CYPSEE ([15]; 50 g ai/ha): 85%; Herbicidal effect (%) BBBBB ([16]; 50 g ai/ha): 90%; Herbicidal effect (%) SCPSS ([17]; 50 g ai/ha): 90%; Phytotoxicity (%) ORYSP (transplanted rice [18]; rice, in vivo, 4 weeks): 0%; Phytotoxicity (%) ORYSP (transplanted rice [19]; rice, in vivo, 4 weeks): 0% |
| Cc1ccc(C(=O)COc2c(C(=O)c3ccc(Cl)c(C)c3Cl)c(C)nn2C)cc1 [(b-3), benzofenap] | – | – | – | – | – | – | – | – | – | – | – | – | – | – | – | – | – | – | – | – | Herbicidal effect (%) MOOVP ([6]; 800 g ai/ha): 50%; Herbicidal effect (%) ECHSS (Echinochloa [7]; 800 g ai/ha): 10%; Herbicidal effect (%) SAGPY (Sagittaria pygmaea Miq. [8]; 800 g ai/ha): 60%; Herbicidal effect (%) CYPSEE ([9]; 800 g ai/ha): 0%; Herbicidal effect (%) BBBBB ([10]; 800 g ai/ha): 70%; Herbicidal effect (%) SCPSS ([11]; 800 g ai/ha): 0%; Herbicidal effect (%) MOOVP ([12]; 800 g ai/ha): 80%; Herbicidal effect (%) ECHSS (Echinochloa [13]; 800 g ai/ha): 80%; Herbicidal effect (%) SAGPY (Sagittaria pygmaea Miq. [14]; 800 g ai/ha): 70%; Herbicidal effect (%) CYPSEE ([15]; 800 g ai/ha): 20%; Herbicidal effect (%) BBBBB ([16]; 800 g ai/ha): 100%; Herbicidal effect (%) SCPSS ([17]; 800 g ai/ha): 70%; Phytotoxicity (%) ORYSP (transplanted rice [18]; rice, in vivo, 4 weeks): 0%; Phytotoxicity (%) ORYSP (transplanted rice [19]; 800 g ai/ha, treatment at 1 leaf-stage, after 4 weeks): 0% |
